Assay: Solid form stability on storage over desiccant (XRPD, ion chromatography)
Description: X-ray Power Diffraction (XRPD), Reflection Mode: XRPD patterns were collected with a PANalytical X'Pert PRO MPD diffractometer using an incident beam of Cu Kα radiation produced using a long, fine-focus source and a nickel filter. The diffractometer was configured using the symmetric Bragg-Brentano geometry. […] A specimen of the sample was prepared as a thin, circular layer centered on a silicon zero-background substrate. Antiscatter slits (SS) were used to minimize the background generated by air. Soller slits for the incident and diffracted beams were used to minimize broadening from axial divergence. Diffraction patterns were collected using a scanning position-sensitive detector (X'Celerator) located 240 mm from the sample and Data Collector software v. 2.2b.
XRPD, Transmission Mode: XRPD patterns were collected with a PANalytical X'Pert PRO MPD diffractometer using an incident beam of Cu radiation produced using an Optix long, fine-focus source. An elliptically graded multilayer mirror was used to focus Cu Kα X-rays through the specimen and onto the detector. […] A specimen of the sample was sandwiched between 3-μm-thick films and analyzed in transmission geometry. A beam-stop, short antiscatter extension, antiscatter knife edge were used to minimize the background generated by air. Soller slits for the incident and diffracted beams were used to minimize broadening from axial divergence. Diffraction patterns were collected using a scanning position-sensitive detector (X'Celerator) located 240 mm from the specimen and Data Collector software v. 2.2b.
Form B was characterized by ^1H NMR, IC, DSC, and TGA.

With `CP(=O)(O)CC[C@H](N)C(=O)O.N` [Form C] the “ammonium content by IC after storage under desiccant for 36 days” value (sample of Form C with minor Form A, 6.3 wt % initially) was 3.2 wt % and the “form change by XRPD after storage under desiccant for 36 days” value (sample of Form C with minor Form A, 36 days under desiccant) was “conversion to Form B with minor Form A and a few minor additional peaks”.

For `CP(=O)(O)CC[C@H](N)C(=O)O` [Form B], the “change in XRPD pattern upon storage over desiccant for 47 days” value (47 days over desiccant) was “No significant changes”.

With `CP(=O)(O)CC[C@H](N)C(=O)O.N` [Form A] the “form change by XRPD upon storage over desiccant” value (Form A from 93/7 v/v methanol/water slurry, storage time not given) was “converted to Form B with minor additional peaks” and the “overall assessment of form stability” value (prone to conversion to Form B) was “metastable”.

For `CP(=O)(O)CC[C@H](N)C(=O)O` [Form D], the “change in XRPD pattern upon storage over desiccant” value (sample of Form D+minor Form A, storage time not given) was “No significant changes”.

Source: patent US11634442B2, “Methods for the purification of L-glufosinate” (BASF SE, priority 2017, dated 2023)
